Where two headings read alike, the source gives them in different places. *1 amine or outer side, *2 acyl side, *3 side chain or, on linkers, in order; H or OH if unused. Where a SMILES comes first, the peptide text is derived from it. [ ]: non-standard residue; d: D form. X3 = CC1C(C)C1C(N[*:1])C(=O)[*:2]; dGly(cPr) = N[C@@H](C(=O)O)C1CC1; Gly(cPr) = N[C@H](C(=O)O)C1CC1; NMeL = CN[CH](CC(C)C)C(=O)O; NMeA = CN[CH](C)C(=O)O; dNMeA = CN[C@H](C)C(=O)O
Experiments:
3T3-L1 murine adipocytes [1] = conditions: literature (Shimokawa et al. 2006); cited from earlier work
[2] = tested on: murine P388 leukemia cells; conditions: at a concentration of 10 ng/mL
[3] = tested on: breast (MCF7) carcinoma cell line; assay: cells; type: cell-based, human; conditions: for IC50: 72 hours, read-out: Cytotoxic activity IC50, MCF7; for IC90: read-out: Cytotoxic activity IC90, MCF7
Protocol: (§4) Pure compounds are evaluated against the human cancer cell lines comprising our cytotoxicity screening panel. Cytotoxicity assays involving oral epidermoid (KB), colon (HCT116), prostate (LNCaP), breast (MCF7), Hela (cervical), leukemia (HL-60) melanoma (A375) and lung (A549) carcinoma cell lines, are performed using sulforhodamine B according to established protocols (Zhang et al., Journal of Medicinal Chemistry 2006; 49: 693-708; and Jutiviboonsuk A et al., Phytochemistry 2005; 66: 2745-2751.). KB and A375 cells are maintained in DMEM (Dulbecco's modified Eagle medium) medium. LNCaP and HL60 cells are maintained in RPMI1640 medium with hormone-free 10% heat-activated FBS (fetal bovine serum) supplemented with 0.1 nM testosterone. MCF7 and Hela cells are maintained and assayed in MEME (Minimum Essential Medium Eagle) medium containing 10 mg/L of insulin. HCT116 cells are maintained in McCoy's 5A medium supplemented with 10% fetal bovine serum. A549 cells are maintained in RPMI-1640 medium supplemented with 10% FCS. Serial dilutions of the compounds are prepared using 10% aqueous DMSO as solvent. The 190 μL cell suspension (3×10^4 cells in 1 ml media) is incubated with 10 μL sample solutions, in triplicate, in 96-well tissue culture plate at 37° C. in a humidified atmosphere of 5% CO2 in air for 72 hours. 10 μL 10% aqueous DMSO is used as control group. Then the cells are fixed to plastic substratum by the addition of 100 μL cold 20% aqueous trichloroacetic acid and washing with water after incubation at 4° C. for 30 min. After staining cells with 100 μL of 0.4% sulforhodamine B in 1% aqueous AcOH for 30 min, unbound dye is removed by rinsing with 1% aqueous AcOH. The bound dye is solubilized with 200 μL 10 mM unbuffered Tris base, pH 10, and the optical density is measured at 515 nm using an ELISA plate reader. The average data are expressed as a percentage, relative to the control. The IC50 values, the dose that inhibit cell growth by 50%, are calculated using nonlinear regression analysis (percent survival versus concentration).

[4] = Body weight of mice after drug treatment; conditions: for Drop of average weight of mice after the first treatment: i.p. injection; for Drop of average weight of mice after six treatments: twice a week
[5] = tested on: prostate (LNCaP) carcinoma cell line; assay: cells; type: cell-based, human; conditions: 72 hours, read-out: Cytotoxic activity IC50, LNCaP
Protocol: as §4

[6] = tested on: lung (A549) carcinoma cell line; assay: cells; type: cell-based, human; conditions: for IC50: 72 hours, read-out: Cytotoxic activity IC50, A549; for IC90: read-out: Cytotoxic activity IC90, A549
Protocol: as §4

[7] = tested on: oral epidermoid (KB) carcinoma cell line; assay: Cytotoxicity assay (sulforhodamine B), KB; type: cell-based, human; conditions: KB cells; for IC50: 72 hours, read-out: Cytotoxic activity IC50, KB
Protocol: as §4

[8] = tested on: colon (HCT116) carcinoma cell line; assay: Cytotoxicity assay (sulforhodamine B), HCT116; conditions: for IC50: read-out: Cytotoxic activity IC50, HCT116
Protocol: as §4

3T3-L1 murine adipocytes [9] = assay: 3T3-L1 fat accumulation (triglyceride) assay; type: cell-based; conditions: differentiated 3T3-L1 adipocytes, 7 days, read-out: Anti-obesity activity (fat accumulation) EC50
Protocol: (§1) MV-A, MV-B, MV-C and MV-D are evaluated for their anti-obesity effects in 3T3-L1 murine adipocytes. 3T3-L1 cells are cultured in the presence of insulin to induce adipocyte differentiation.
(§2) Pure compounds are evaluated against 3T3-L1 cell line for their potential anti-obesity activity. […] After the cells reach 100% confluence, the culture medium is changed to a differentiation DMEM medium containing 10% FCS, […], 0.5 mM 3-isobutyl-1-methylxanthine (IBMX), 90 U/mL penicillin, […] and 10 μg/mL insulin for induction of the adipocyte form of the 3T3-L1 cells. After 2 days, the differentiation medium is changed back to the normal DMEM medium and refreshed with the normal medium every 2 days. After incubation of additional 7 days, the cells are seeded in two sets of 96-well plates (about 10,000 cells per well). The test compounds in different concentrations are then added to the wells with 0.5% aqueous DMSO as control group. After incubation of 7 days, the differentiated 3T3-L1 adipocytes are treated with 2% Triton-X 100 ([…]) for 30 min at room temperature followed by sonication for 1 min. Fat accumulation is determined by measuring the liberated triglyceride using a Wato Triglyceride E-test Kit with the absorbance at 630/690 nm. The fat-accumulation rate is calculated as a percentage of the DMSO control. […] The cell viability of the differentiated 3T3-L1 adipocytes in another 96-well plate is treated with a Wako Cell Counting Kit-8 Test and measured with the absorbance at 450 nm. The cell viability is calculated as a percentage of the control.

[10] = tested on: panel of cancer cell lines comprising KB, HCT116, LNCaP, A549, MCF7, HL60, Hela and A375; conditions: at 2 μM
[11] = tested on: HIV (human immunodeficiency virus)
3T3-L1 murine adipocytes [12] = assay: 3T3-L1 adipocyte cell viability; type: cell-based; conditions: differentiated 3T3-L1 adipocytes
Protocol: as §1, §2

[13] = tested on: lung cancer cell line (A549); assay: Hollow fiber in vivo test, A549; parameters: species or system mouse; conditions: 2.0 mg/kg
Protocol: (§3) Hollow fiber tests are well known in the art for providing preliminary indications of therapeutic efficacy (Mi et al. J. Nat. Prod. 2002, 65: 842-850). In hollow fiber tests, human tumor cell lines currently employed in cell cultures are grown inside semipermeable hollow fibers to form heterogeneous solid tumor models. […] By evaluating the test compound's inhibition of tumor cell growth versus the toxic response in the host, a preliminary estimate of therapeutic efficacy is provided in a cost- and time effective manner.

[14] = tested on: melanoma cancer cell line (A375); assay: Hollow fiber in vivo test, A375; parameters: species or system mouse; conditions: 2.0 mg/kg
Protocol: as §3

[15] = tested on: breast cancer cell line (MCF7); assay: Hollow fiber in vivo test, MCF7; parameters: species or system mouse; conditions: 2.0 mg/kg
Protocol: as §3

HCT116-tumor xenograft = assay: HCT116 xenograft mouse model; type: in vivo; conditions: 5 mg/kg, every other day for 21 days
Protocol: The treatment started on the 6th day when the HCT116-tumor reached approximately 100 mm^3 (L×W×W). […] All mice died for the maytansine group after the initial two treatments at the dose of 0.1 mg/kg, indicating the highly toxicity of maytansine.

MCF7-tumor xenograft = assay: MCF7 xenograft mouse model; conditions: 5 mg/kg, twice a week for 3 weeks
Protocol: The treatment started on the 12th day when the MCF7-tumor size reached approximately 100 mm^3 (L×W×H). Two doses of MV-A (1.0 and 2.0 mg/kg), paclitaxel (5 mg/kg), and vehicle were administered via i.p. (intraperitoneal), i.v. (intravenous), or oral respectively, to the tumor-bearing mice twice a week for 3 weeks ([…]).
Antitumor animal study. All animal studies were approved and performed according to Animal Care and Use Guidelines of the Animal Ethics Committee at Hong Kong Baptist University and performed following Animal Care and Use guidelines set by NIH (National Institute of Health, USA). BALB/c nude mice, SPF class, male or female, 5-6 weeks old, were purchased from Charles River Laboratories. Before the experiment, it is one week of acclimatization to SPF class laboratory conditions. MV-A is tested for its anticancer activity against HCT116 and MCF7 cancer cells using a number of nude mice (Balc/nu/nu, female) in comparison of paclitaxel and maytansine. HCT116 or MCF7 cancer cells are subcutaneously implanted with 5×10^6 cells in the rear flank of each mouse. Female mice receiving MCF-7 cells are implanted with an s.c. pellet of 17β-estradiol (0.72 mg/pellet) a few days prior to injection to induce tumors. […] The mice are divided into 5 groups for HCT116 cancer cells: one high dose (1.0 mg/kg: 10 mice) group of MV-A, one low dose (0.5 mg/kg: 10 mice) group of MV-A, one dose (5.0 mg/kg: 10 mice) of paclitaxel, one dose of maytansine (0.1 mg/kg) and one dose of vehicle (negative control: 10 mice). The mice are then divided into 4 groups for MCF7 cancer cells: one high dose (2.0 mg/kg: 10 mice) group of MV-A, one low dose (1.0 mg/kg: 10 mice) group of MV-A, one dose (5.0 mg/kg: 10 mice) of paclitaxel, and one dose of vehicle (negative control: 10 mice). Every other day administration via i.p. (intraperitoneal), i.v. (intravenous), or oral, respectively are scheduled for 21 days for the HCT116 groups. Twice a week injections administered via i.p. (intraperitoneal), i.v. (intravenous), or oral, respectively are scheduled for […] for the MCF7 groups. Weights of mice and tumor diameters are measured twice a week until the end of the experiment. The tumor size in mm^3 was calculated by the formula: tumor size=length×width×height (L×W×H).

[16] = tested on: colon cancer cell line (HCT116); assay: Hollow fiber in vivo test, HCT116; parameters: species or system mouse; conditions: 2.0 mg/kg
Protocol: as §3

[17] = tested on: cervical cancer cell line (Hela); assay: Hollow fiber in vivo test, Hela; parameters: species or system mouse; conditions: 2.0 mg/kg
Protocol: as §3

Ternatin
Inhibition of fat accumulation against 3T3-L1 murine adipocytes (3T3-L1 murine adipocytes [1]): potent inhibitor of fat accumulation

CC(C)CC1NC(=O)C(C)N(C)C(=O)C(C)N(C)C(=O)C(C2C(C)C2C)NC(=O)C(CC(C)C)N(C)C(=O)C(C)N(C)C(=O)C(C2C(C)C2C)NC1=O (centres unmarked) [Compound 1] (cyclo([X3][NMeA][NMeA]L[X3][NMeA][NMeL]); configuration not given here)
Inhibition of cell growth of murine P388 leukemia cells [2]: 100%
IC50 [3]: 0.26 nM
IC90 [3]: 1.47 nM
Mortality during the treatments ([4]; 1 mg/kg and 2 mg/kg): No mice die
Toxicity observed from dissection of the mice ([4]; 1 mg/kg and 2 mg/kg): No sign of toxicity
Drop of average weight of mice after the first treatment ([4]; 1 mg/kg): 1.5 g
Drop of average weight of mice after the first treatment ([4]; 2 mg/kg): 2.2 g
Drop of average weight of mice after six treatments ([4]; 1 mg/kg): 1.7 g
Drop of average weight of mice after six treatments ([4]; 2 mg/kg): 4.7 g
IC50 [5]: 0.42 nM
IC50 [6]: 0.24 nM
IC90 [6]: 1.02 nM
Cytotoxic activity IC90, KB [7]: 1.65 nM
IC50 [7]: 0.05 nM
IC50 ([8]; HCT116 cells, 72 hours): 0.25 nM
IC90 ([8]; read-out: Cytotoxic activity IC90, HCT116, HCT116 cells): 0.69 nM

CC(C)CC1NC(=O)C(C)N(C)C(=O)C(C)N(C)C(=O)C(C2C(C)C2C)NC(=O)C(CC(C)CO)N(C)C(=O)C(C)N(C)C(=O)C(C2C(C)C2C)NC1=O (centres unmarked) [Compound 2]
Inhibition of cell growth of murine P388 leukemia cells [2]: 100%
IC50 [3]: 5.83 nM
IC90 [3]: 9.21 nM
IC50 [6]: 6.35 nM
IC90 [6]: 6.84 nM
Cytotoxic activity IC90, KB [7]: 11.4 nM
IC50 [7]: 0.79 nM
IC50 ([8]; HCT116 cells, 72 hours): 2.62 nM

CC(C)C[C@H]1NC(=O)[C@@H](C)N(C)C(=O)[C@H](C)N(C)C(=O)[C@H](C2CC2)NC(=O)[C@H](CC(C)C)N(C)C(=O)[C@H](C)N(C)C(=O)[C@@H](C2CC2)NC1=O [MV-D] (cyclo([Gly(cPr)][NMeA][dNMeA][dL][dGly(cPr)][NMeA][NMeL]))
EC50 (3T3-L1 murine adipocytes [9]): 13.3 nM
Inhibition activity against the cancer cells [10]: no inhibition activity
IC50 [11]: 1240 nM
IC50 (3T3-L1 murine adipocytes [12]): > 5000 nM

CC(=O)O[C@H]1C(=O)[C@@]2(C)[C@H]([C@H](OC(=O)c3ccccc3)[C@]3(O)C[C@H](OC(=O)[C@H](O)[C@@H](NC(=O)c4ccccc4)c4ccccc4)C(C)=C1C3(C)C)[C@]1(OC(C)=O)CO[C@@H]1C[C@@H]2O [Paclitaxel, reference compound]
Inhibition (%) ([13]; A549-IP): 39.8%
Inhibition (%) ([13]; A549-SC): 0%
Inhibition (%) ([14]; A375-IP): 38.1%
Inhibition (%) ([14]; A375-SC): 7.8%
Inhibition (%) ([15]; MCF7-IP): 70.7%
Inhibition (%) ([15]; MCF7-SC): 0%
Inhibition of HCT116 tumor growth (excised tumor weights) (HCT116-tumor xenograft): 37.6%
IC50 ([3]; Homo sapiens): 3.24 nM
IC90 ([3]; Homo sapiens): > 30 nM
Inhibition of MCF7 tumor growth (excised tumor weights) (MCF7-tumor xenograft): 28.2%
IC50 ([5]; Homo sapiens): 15.9 nM
IC50 ([6]; Homo sapiens): 4.81 nM
IC90 ([6]; Homo sapiens): > 20 nM
Inhibition (%) ([16]; HCT116-IP): 60.4%
Inhibition (%) ([16]; HCT116-SC): 0%
IC50 ([7]; Homo sapiens): 3.38 nM
Cytotoxic activity IC90, KB [7]: >20 nM
Inhibition (%) ([17]; Hela-IP): 69.5%
Inhibition (%) ([17]; Hela-SC): 11.1%
IC50 ([8]; Homo sapiens, HCT-116, 72 h): 5.78 nM
IC90 ([8]; Homo sapiens, HCT-116, read-out: Cytotoxic activity IC90, HCT116): > 20 nM

Reference: patent US9963485B2, “Cycloheptapeptide agents for treatment of cancer and obesity diseases” (Hong Kong Baptist University, priority 2012, dated 2018)
